In BigSolDB 2.1:

Nc1ccc(Cc2ccc(N)cc2)cc1
solubility (mole fraction)
Details	293.15 K	298.15 K	303.15 K	308.15 K	313.15 K	318.15 K	323.15 K	328.15 K	333.15 K
in benzene	0.0207	0.0299	0.039	0.0499	0.066	0.0865	0.114	–	–
in chloroform	0.123	0.142	0.165	0.197	0.23	0.269	0.306	–	–
in ethanol	0.0335	0.0461	0.0637	0.0842	0.11	0.15	0.198	0.267	–
in isopropanol	0.011	0.0136	0.0178	0.0236	0.0312	0.0411	0.0536	0.0696	0.0898
in methanol	0.127	0.157	0.187	0.219	0.259	0.3	0.347	0.403	–
in n-butanol	0.0187	0.0231	0.0296	0.0371	0.0476	0.0582	0.0713	0.0885	0.108
in toluene	0.0156	0.0195	0.0244	0.03	0.038	0.0487	0.0599	0.075	0.0932
